Assay results as given in US11697648B2, “Fused pyrimidine pyridinone compounds as JAK inhibitors” (THERAVANCE BIOPHARMA R&D IP, LLC, priority 2019, dated 2023).

Legend:
Caco-2 cell monolayers = test: Caco-2 permeation assay; format: in vitro ADME; conditions: 5 μM, A-B direction, with Verapamil (25 μM)
Method in brief: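 Compounds tested at 5 μM in duplicate across Caco-2 monolayers, apical-to-basolateral, with 25 μM verapamil to block P-gp, at 37° C., 5% CO2. Apical and basal samples taken at 0 and 120 min, analysed by LC-MS/MS; Papp (cm/sec) calculated as dQ/(dt×Area×concentration).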

Tyk2 = Tyk2 (Homo sapiens (Human), UniProt P29597); test: Biochemical Tyk2 kinase assay (LanthaScreen)
Method in brief: (§1)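 GST-JAK + GFP-STAT1 peptide, HEPES pH 7.5/MgCl2/EGTA/Brij-35 buffer; cpd preincubation 1 h RT; ATP start, 1 h RT; stop with 10 mM EDTA + 2 nM Tb-anti-pSTAT1; TR-FRET 520/495. 4-parameter IC50 → pKi (Cheng-Prusoff).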

JAK1 = JAK1 (Homo sapiens (Human), UniProt P23458); test: Biochemical JAK1 kinase assay (LanthaScreen)
Method in brief: as §1

JAK3 = JAK3 (Homo sapiens (Human), UniProt P52333); test: Biochemical JAK3 kinase assay (LanthaScreen); conditions: for JAK3 (pKi)-JAK1 (pKi): selectivity JAK3 over JAK1, difference of pKi
Method in brief: as §1

[1] = system: IL-2 stimulated STAT5 phosphorylation in Tall-1 human T cell line (JAK3); test: Cellular JAK3 potency assay: inhibition of IL-2 stimulated pSTAT5 in Tall-1 T cells; format: cell-based; conditions: IL-2 stimulated pSTAT5, Tall-1 T cells
Method in brief: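 Tall-1 cells, 45,000 per well, preincubated 1 hour with compound at 37 °C, then stimulated 30 minutes with IL-2 at 300 ng/ml final. pSTAT5 (Tyr694/699) in lysates quantified by AlphaLISA SureFire Ultra. pIC50 derived from inhibition curves, given as mean with SD.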

JAK2 = JAK2 (Homo sapiens (Human), UniProt O60674); test: Biochemical JAK2 kinase assay (LanthaScreen)
Method in brief: as §1

Sequence of JAK1 (P23458 whole entry): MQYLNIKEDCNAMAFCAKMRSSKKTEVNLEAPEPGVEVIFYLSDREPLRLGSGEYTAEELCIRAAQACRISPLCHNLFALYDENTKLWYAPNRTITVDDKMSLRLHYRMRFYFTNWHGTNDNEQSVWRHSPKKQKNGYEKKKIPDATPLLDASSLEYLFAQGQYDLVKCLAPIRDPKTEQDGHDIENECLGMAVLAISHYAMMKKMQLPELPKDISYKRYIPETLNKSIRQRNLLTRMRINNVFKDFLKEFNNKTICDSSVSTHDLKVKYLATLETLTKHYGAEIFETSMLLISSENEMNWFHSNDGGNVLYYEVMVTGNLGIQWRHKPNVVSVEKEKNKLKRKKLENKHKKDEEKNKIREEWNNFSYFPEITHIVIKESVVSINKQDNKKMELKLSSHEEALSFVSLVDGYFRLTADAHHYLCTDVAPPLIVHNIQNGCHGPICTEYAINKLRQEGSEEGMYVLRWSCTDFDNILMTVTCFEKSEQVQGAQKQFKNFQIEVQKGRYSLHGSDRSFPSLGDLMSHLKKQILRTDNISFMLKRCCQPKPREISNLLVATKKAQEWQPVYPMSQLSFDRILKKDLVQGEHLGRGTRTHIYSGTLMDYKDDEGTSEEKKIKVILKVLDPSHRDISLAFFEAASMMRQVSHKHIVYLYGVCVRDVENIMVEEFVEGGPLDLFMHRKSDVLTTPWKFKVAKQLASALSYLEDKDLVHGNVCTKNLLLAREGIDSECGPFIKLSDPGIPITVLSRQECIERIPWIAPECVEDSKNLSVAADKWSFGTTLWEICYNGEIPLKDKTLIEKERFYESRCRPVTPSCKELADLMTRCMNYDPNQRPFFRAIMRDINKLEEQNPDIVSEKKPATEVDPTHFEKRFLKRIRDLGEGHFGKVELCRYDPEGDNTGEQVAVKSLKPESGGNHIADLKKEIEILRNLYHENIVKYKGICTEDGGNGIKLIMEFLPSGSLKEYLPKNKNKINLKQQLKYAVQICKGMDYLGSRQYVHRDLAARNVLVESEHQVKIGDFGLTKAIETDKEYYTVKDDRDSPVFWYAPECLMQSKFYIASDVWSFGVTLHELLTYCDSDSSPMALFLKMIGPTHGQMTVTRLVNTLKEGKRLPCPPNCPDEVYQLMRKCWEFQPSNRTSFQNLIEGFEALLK
Sequence of Tyk2 (P29597 whole entry): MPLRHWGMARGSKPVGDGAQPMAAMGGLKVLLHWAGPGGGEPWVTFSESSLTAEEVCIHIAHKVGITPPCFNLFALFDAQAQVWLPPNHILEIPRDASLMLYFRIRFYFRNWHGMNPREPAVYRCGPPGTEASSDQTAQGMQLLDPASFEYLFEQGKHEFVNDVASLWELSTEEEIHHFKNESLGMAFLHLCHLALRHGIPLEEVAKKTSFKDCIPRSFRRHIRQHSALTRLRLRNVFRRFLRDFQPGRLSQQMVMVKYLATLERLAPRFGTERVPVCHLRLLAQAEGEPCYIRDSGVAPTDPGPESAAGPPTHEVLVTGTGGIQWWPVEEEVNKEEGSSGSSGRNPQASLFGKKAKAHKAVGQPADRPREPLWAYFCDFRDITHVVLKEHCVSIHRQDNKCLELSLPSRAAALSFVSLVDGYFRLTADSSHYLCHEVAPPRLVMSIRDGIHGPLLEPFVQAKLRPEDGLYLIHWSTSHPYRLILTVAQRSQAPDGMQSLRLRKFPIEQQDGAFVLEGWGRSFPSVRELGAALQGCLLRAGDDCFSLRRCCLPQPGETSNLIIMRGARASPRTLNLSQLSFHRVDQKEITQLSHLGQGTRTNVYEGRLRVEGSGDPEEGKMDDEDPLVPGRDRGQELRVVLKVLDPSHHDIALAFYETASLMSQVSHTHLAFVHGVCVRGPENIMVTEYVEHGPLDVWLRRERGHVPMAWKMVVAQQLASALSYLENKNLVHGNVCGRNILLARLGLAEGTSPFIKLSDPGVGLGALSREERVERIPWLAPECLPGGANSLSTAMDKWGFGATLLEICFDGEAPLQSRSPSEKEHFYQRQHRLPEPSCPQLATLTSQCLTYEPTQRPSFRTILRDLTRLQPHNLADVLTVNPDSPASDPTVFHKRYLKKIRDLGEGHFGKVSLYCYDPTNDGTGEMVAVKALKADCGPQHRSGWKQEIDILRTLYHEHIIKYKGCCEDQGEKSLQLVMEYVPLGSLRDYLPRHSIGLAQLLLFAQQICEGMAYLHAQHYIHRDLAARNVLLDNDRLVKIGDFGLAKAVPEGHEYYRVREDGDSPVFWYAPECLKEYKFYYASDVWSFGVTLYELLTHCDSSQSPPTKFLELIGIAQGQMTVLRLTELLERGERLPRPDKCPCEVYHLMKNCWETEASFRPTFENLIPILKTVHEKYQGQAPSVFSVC
Sequence of JAK3 (P52333 whole entry): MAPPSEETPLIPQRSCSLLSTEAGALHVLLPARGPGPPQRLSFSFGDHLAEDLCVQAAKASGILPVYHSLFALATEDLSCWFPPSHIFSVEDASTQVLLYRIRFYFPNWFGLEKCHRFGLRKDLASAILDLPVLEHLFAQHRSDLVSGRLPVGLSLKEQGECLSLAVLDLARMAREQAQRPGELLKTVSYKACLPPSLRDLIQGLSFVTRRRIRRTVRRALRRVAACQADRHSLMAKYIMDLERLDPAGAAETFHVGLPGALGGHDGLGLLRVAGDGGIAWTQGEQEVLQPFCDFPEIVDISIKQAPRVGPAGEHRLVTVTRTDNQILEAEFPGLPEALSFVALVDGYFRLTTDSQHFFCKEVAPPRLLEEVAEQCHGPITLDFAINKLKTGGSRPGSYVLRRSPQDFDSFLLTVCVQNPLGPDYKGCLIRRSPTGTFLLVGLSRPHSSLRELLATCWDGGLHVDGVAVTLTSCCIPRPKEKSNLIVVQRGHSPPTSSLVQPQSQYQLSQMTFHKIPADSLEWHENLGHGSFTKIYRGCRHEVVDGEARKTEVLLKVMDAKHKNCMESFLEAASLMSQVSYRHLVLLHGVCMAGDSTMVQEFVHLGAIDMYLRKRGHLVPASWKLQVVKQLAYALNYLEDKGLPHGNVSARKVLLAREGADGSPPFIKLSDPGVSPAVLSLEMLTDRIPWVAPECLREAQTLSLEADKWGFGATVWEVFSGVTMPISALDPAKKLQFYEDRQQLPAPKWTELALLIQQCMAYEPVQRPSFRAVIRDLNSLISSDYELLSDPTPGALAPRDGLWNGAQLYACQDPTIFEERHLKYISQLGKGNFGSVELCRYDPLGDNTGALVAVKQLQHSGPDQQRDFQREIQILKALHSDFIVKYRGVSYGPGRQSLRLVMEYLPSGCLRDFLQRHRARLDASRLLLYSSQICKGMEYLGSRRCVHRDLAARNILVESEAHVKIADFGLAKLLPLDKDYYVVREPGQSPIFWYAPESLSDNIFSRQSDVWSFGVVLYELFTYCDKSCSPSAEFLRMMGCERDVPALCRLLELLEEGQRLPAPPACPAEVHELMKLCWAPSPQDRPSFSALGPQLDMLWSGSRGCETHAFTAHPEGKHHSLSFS
Sequence of JAK2 (O60674 whole entry): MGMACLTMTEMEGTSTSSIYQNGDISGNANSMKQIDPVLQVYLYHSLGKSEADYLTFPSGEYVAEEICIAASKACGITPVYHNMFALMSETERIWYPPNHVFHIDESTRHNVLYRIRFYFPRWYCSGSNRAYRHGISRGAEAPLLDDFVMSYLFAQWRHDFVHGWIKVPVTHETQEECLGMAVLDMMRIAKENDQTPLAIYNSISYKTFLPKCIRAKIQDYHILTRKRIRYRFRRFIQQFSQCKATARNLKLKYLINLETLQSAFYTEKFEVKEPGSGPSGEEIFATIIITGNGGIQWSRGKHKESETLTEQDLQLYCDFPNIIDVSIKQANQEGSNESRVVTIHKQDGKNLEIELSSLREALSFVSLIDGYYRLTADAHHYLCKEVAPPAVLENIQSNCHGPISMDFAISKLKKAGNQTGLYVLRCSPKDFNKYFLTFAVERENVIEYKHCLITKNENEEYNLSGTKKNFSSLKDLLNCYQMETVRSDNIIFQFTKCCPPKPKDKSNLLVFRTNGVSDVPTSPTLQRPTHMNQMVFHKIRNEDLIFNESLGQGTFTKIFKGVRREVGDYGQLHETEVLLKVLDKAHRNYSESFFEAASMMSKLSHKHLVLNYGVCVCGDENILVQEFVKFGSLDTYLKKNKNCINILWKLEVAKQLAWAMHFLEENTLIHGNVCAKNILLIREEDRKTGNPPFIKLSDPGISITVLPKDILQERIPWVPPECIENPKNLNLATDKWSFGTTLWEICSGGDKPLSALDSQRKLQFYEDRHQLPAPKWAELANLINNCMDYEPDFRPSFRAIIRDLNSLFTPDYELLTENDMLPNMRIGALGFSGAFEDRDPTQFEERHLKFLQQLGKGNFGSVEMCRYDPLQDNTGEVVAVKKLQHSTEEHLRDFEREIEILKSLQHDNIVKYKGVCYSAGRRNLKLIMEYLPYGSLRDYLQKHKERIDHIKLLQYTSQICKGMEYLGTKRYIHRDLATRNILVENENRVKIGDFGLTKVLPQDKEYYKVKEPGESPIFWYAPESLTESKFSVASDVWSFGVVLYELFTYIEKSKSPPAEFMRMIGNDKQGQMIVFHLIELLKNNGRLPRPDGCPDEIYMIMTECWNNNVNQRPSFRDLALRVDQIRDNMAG

| Structure (SMILES) | Caco Kp (Caco-2 cell monolayers) | Tyk 2 (pKi) (Tyk2) | JAK 1 (pKi) (JAK1) | JAK 3 (pKi) (JAK3) | JAK3 (pKi)-JAK1 (pKi) (JAK3) | Tall-1 (pIC50) [1] | JAK 2 (pKi) (JAK2) |
| --- | --- | --- | --- | --- | --- | --- | --- |
| C=CC(=O)N1CC(CCn2c(=O)ccc3cnc(Nc4ccc(-n5ccnn5)cc4)nc32)C1 [Example 67] | B (B represents a value between 5×10^−6 and 10×10^−6 cm/sec) | E (E represents a pKi value of 7 or below (Ki of 100 nM or above)) | E (E represents a pKi value of 7 or below (Ki of 100 nM or above)) | B (B represents pKi value between 9 and 10 (Ki between 1 nM and 0.1 nM)) | A (A represents a value of 3 or above) | B (B represents a pC50 value between 6.7 (included) and 7.5 (IC50 between 200 nM and 32 nM)) | E (E represents a pKi value of 7 or below (Ki of 100 nM or above)) |
| C=CC(=O)N1CC(CCn2c(=O)ccc3cnc(Nc4cnn(CCN5CCOCC5)c4)nc32)C1 [Example 61] | A (A represents a value below 5×10^−6 cm/sec) | E (E represents a pKi value of 7 or below (Ki of 100 nM or above)) | E (E represents a pKi value of 7 or below (Ki of 100 nM or above)) | B (B represents pKi value between 9 and 10 (Ki between 1 nM and 0.1 nM)) | A (A represents a value of 3 or above) | B (B represents a pC50 value between 6.7 (included) and 7.5 (IC50 between 200 nM and 32 nM)) | E (E represents a pKi value of 7 or below (Ki of 100 nM or above)) |
| C=CC(=O)N1CC(CCn2c(=O)ccc3cnc(Nc4ccc(N5CCN(C(=O)OC(C)C)CC5)cc4)nc32)C1 [Example 100] | A (A represents a value below 5×10^−6 cm/sec) | E (E represents a pKi value of 7 or below (Ki of 100 nM or above)) | E (E represents a pKi value of 7 or below (Ki of 100 nM or above)) | A (A represents a pKi value≥10 (Ki≤0.1 nM)) | A (A represents a value of 3 or above) | A (A represents a pIC50 value≥7.5 (IC50≤32 nM)) | E (E represents a pKi value of 7 or below (Ki of 100 nM or above)) |
| C=CC(=O)N1CC(CCn2c(=O)ccc3cnc(Nc4ccc(N5CCN(C)[C@H](C)C5)cc4)nc32)C1 [Example 162] | C (C represents a value between 10×10^−6 and 30×10^−6 cm/sec) | E (E represents a pKi value of 7 or below (Ki of 100 nM or above)) | E (E represents a pKi value of 7 or below (Ki of 100 nM or above)) | A (A represents a pKi value≥10 (Ki≤0.1 nM)) | A (A represents a value of 3 or above) | A (A represents a pIC50 value≥7.5 (IC50≤32 nM)) | E (E represents a pKi value of 7 or below (Ki of 100 nM or above)) |
| C=CC(=O)N1CCN(CCn2c(=O)ccc3cnc(Nc4ccc(N5CCN(S(C)(=O)=O)CC5)cc4)nc32)[C@@H](CC)C1 [Example 189] | B (B represents a value between 5×10^−6 and 10×10^−6 cm/sec) | E (E represents a pKi value of 7 or below (Ki of 100 nM or above)) | E (E represents a pKi value of 7 or below (Ki of 100 nM or above)) | A (A represents a pKi value≥10 (Ki≤0.1 nM)) | A (A represents a value of 3 or above) | B (B represents a pC50 value between 6.7 (included) and 7.5 (IC50 between 200 nM and 32 nM)) | E (E represents a pKi value of 7 or below (Ki of 100 nM or above)) |
| C=CC(=O)N1CCN(CCn2c(=O)ccc3cnc(Nc4ccc(N5CCN(C(C)CC)CC5)cc4)nc32)CC1 (stereo not drawn) [Example 206] | C (C represents a value between 10×10^−6 and 30×10^−6 cm/sec) | E (E represents a pKi value of 7 or below (Ki of 100 nM or above)) | E (E represents a pKi value of 7 or below (Ki of 100 nM or above)) | A (A represents a pKi value≥10 (Ki≤0.1 nM)) | A (A represents a value of 3 or above) | A (A represents a pIC50 value≥7.5 (IC50≤32 nM)) | E (E represents a pKi value of 7 or below (Ki of 100 nM or above)) |
